Assay results reported in US20240279214A1, “ALPHA4 BETA7 INEGRIN ANTAGONISTS AND USES THEREOF” (XinThera, Inc., priority 2022, published 2024).

Molecular target: T1, a4b1 integrin interaction with VCAM-1 (Homo sapiens, UniProt P05556+P13612)
T1 construct: capture of a4b1 integrin expressing cells Jurkat; endogenous in cells; host or cells: Jurkat
Assay: a4b1 Cell Capture Assay (Jurkat cells on VCAM-1 Fc coated plates)
Assay type: cell-based
Settings: 50% human serum, 1 mM MgCl2, 1 hour incubation, CellTiter-Glo luminescence
Protocol: The potency of inhibitors in preventing a4b1 integrin interaction with VCAM-1 was measured by monitoring the capture of a4b1 integrin expressing cells Jurkat on recombinant human VCAM-1 Fc chimera protein-coated plates. The protein was a fusion between human VCAM-1 (Phe25-Glu698) Accession #P19320, Accession #AAY82472) and human IgG1 (Pro100-Lys330)] (R&D Systems, Catalog #862-VC). 96-well plates (Thermofisher, Catalog #136102) were coated with the recombinant protein by dispensing 100 μL of 0.25 μg/mL per well. After a quick spin to settle down the coating solution using plate centrifuge, plates were incubated overnight at 4° C. in a moisture chamber. On Day 2, the plates were washed with PBS using a Bluecatbio Blue®Washer (GentleSpin wash, 3 cycles, pressure=1, volume 150 uL). Blocking solution (1.0% BSA in PBS, Sigma, Catalog #A7979) was then added at 200 uL/well, and the plates were quickly spun to settle down blocking buffer and incubated in cell culture incubator at 37° C. and 5% CO2 for 1 hour. The plates were then washed with 0.1% BSA in PBS using a Bluecatbio Blue®Washer (GentleSpin wash, 3 cycles, pressure=1, volume 150 uL). Jurkat cells suspended in assay medium (1 mM MgCl2 25 mM HEPES and 50% human serum, Sigma, Catalog #H4522) at a density of 0.5×10^6 cells/mL were added at 100 uL/well. Each compound evaluated was prepared as a DMSO stock solution. Test compounds were evaluated with a 9-point serial dilution curve and were added to the plates using a Tecan D300e Digital dispenser. Each titration curves were performed in triplicate on the same plate, and most of compounds were retested in different dates multiple times. The plates were shaken at 300 rpm on orbital plate shaker for 3 minutes to mix the cells and compounds, quickly spun to settle the cells and solution, and incubated in cell culture incubator at 37° C. and 5% CO2. After 1 hour incubation, the unbound cells were washed away with RPMI1640 medium supplemented with 1 mM MgCl2 and 1% BSA) (wash buffer) using a Bluecatbio Blue®Washer (MagbeadsSpin wash, 1 cycle, pressure 1, volume=150 uL). After wash buffer removal, A mixture of wash buffer/CellTiter-Glo® Reagent (Pormega, catalog #G7573) at 1:1 (V/V) was added at volume of 100 uL to each well. The plates were placed in a chamber at 25° C. and incubated for 30 minutes. Luminescence was recorded using a Envision plate reader 2105 according to CellTiter-Glo protocol.
The mean luminescence signals from negative control wells without VCAM-1 coating and compound treatment (cells only) was defined as 100% binding inhibition, and the mean luminescence signals from positive control wells with VCAM-1 coating but without compound treatment (VCAM-1 and cells only) was defined as 0% binding inhibition. The luminescence signals from other compound treated wells were normalized in percentage scale accordingly. The normalized mean % inhibition data were plotted against logarithmic compound concentration in nanomolar and were fitted with 4-parameter logistic model to obtain IC50 for each compound.

T1 sequence (P13612 34-1032): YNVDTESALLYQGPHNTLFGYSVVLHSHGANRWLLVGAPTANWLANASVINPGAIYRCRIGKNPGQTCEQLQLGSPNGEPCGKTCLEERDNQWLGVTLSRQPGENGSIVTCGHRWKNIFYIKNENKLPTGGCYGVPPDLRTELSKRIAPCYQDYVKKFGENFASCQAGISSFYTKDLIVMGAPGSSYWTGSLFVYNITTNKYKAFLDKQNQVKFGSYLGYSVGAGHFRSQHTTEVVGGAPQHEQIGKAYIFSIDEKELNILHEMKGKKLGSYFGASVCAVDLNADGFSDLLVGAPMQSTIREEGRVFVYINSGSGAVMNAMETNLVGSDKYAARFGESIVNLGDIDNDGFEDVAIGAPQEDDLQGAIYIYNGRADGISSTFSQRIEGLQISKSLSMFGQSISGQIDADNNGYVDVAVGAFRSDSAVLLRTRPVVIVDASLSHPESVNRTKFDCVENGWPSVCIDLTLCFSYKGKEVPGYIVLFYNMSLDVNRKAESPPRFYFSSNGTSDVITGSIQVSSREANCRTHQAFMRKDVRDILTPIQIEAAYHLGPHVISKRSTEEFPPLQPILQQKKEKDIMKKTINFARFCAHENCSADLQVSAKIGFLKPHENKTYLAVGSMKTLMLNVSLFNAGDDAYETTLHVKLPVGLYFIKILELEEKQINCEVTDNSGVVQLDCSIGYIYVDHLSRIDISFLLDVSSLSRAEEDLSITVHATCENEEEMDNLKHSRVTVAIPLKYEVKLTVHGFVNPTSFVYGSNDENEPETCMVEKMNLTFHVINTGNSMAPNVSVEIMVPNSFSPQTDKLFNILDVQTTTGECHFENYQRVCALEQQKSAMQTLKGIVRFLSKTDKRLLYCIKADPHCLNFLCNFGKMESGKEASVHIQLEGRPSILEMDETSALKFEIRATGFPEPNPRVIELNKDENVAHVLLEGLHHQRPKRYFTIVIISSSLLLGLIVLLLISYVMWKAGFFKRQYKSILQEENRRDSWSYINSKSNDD
T1 sequence (P05556 21-798): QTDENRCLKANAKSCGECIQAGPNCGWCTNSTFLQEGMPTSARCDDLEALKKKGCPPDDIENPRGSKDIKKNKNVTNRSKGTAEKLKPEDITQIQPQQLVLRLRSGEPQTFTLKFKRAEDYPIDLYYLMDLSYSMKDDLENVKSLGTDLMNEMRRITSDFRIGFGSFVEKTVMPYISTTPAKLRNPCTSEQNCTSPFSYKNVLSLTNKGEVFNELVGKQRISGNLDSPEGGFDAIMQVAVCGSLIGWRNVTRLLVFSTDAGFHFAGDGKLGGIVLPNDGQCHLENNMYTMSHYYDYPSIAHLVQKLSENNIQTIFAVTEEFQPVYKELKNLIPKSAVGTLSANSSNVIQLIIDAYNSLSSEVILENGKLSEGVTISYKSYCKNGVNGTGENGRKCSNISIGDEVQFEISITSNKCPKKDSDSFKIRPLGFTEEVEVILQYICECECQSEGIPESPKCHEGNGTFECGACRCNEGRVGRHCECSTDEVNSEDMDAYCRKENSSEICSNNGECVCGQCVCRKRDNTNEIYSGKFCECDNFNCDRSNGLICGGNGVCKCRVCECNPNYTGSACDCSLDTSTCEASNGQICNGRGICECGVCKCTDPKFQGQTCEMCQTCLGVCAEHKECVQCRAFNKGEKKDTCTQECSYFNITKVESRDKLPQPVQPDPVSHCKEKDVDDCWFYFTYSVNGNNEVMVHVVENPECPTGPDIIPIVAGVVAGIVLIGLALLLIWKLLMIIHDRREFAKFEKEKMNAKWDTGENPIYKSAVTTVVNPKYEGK

EC50 [nM]	Structure (SMILES)
11900	Cc1cc(C2CC2)cc2c1-c1cc(c(F)c(C(F)(F)F)c1)[C@H](CC(=O)O)NC(=O)[C@@H](n1cc(CCN3CC(F)C3)c(C(F)(F)F)cc1=O)c1cccc(c1)O2 (relative stereo) [Example 10, [(14R*,17S)-5-cyclopropyl-19-fluoro-14-{5-[2-(3-fluoroazetidin-1-yl)ethyl]-2-oxo-4-(trifluoromethyl)pyridin-1-yl}-3-methyl-15-oxo-20-(trifluoromethyl)-8-oxa-16-azatetracyclo[16.3.1.1^{9,13}.0^{2,7}]tricosa-1(21),2(7),3,5,9,11,13(23),18(22),19-nonaen-17-yl]acetic acid]
880	Cc1cccc2c1-c1cc(c(F)c(C(F)(F)F)c1)[C@H](CC(=O)O)NC(=O)[C@@H](n1cc(CCN3CC(F)C3)c(C(F)(F)F)cc1=O)c1cc(Cl)cc(c1)O2 (relative stereo) [Example 15, [(14R*,17S)-11-chloro-19-fluoro-14-{5-[2-(3-fluoroazetidin-1-yl)ethyl]-2-oxo-4-(trifluoromethyl)pyridin-1-yl}-3-methyl-15-oxo-20-(trifluoromethyl)-8-oxa-16-azatetracyclo[16.3.1.1^{9,13}.0^{2,7}]tricosa-1(22),2(7),3,5,9,11,13(23),18,20-nonaen-17-yl]acetic acid]
4580	Cc1cc(Cl)cc2c1-c1cc(c(F)c(C(F)(F)F)c1)[C@H](CC(=O)O)NC(=O)[C@@H](n1cc(CCN3CC(F)C3)c(C(F)(F)F)cc1=O)c1cccc(c1)O2 (single isomer, unassigned) [Example 11]
359	Cc1cc2cc(c1F)[C@H](CC(=O)O)NC(=O)[C@@H](n1cc(CCN3CC(F)C3)c(C(F)(F)F)cc1=O)c1cc(Cl)cc(c1)Oc1cccc(C)c1-2 (single isomer, unassigned) [Example 3]

Further lines, the compound ahead of its results:

Structure (SMILES)	EC50 [nM]
Cc1cc(C)c2c(c1)Oc1cccc(c1)[C@H](n1cc(CCCN(C)C)c(C(F)(F)F)cc1=O)C(=O)N[C@@H](CC(=O)O)c1cn-2nc1C(F)(F)F (relative stereo) [Example 18, [(13S,16R*)-16-{5-[3-(dimethylamino)propyl]-2-oxo-4-(trifluoromethyl)pyridin-1-yl}-5,7-dimethyl-15-oxo-11-(trifluoromethyl)-2-oxa-9,10,14-triazatetracyclo[15.3.1.1^{9,12}.0^{3,8}]docosa-1(20),3(8),4,6,10,12(22),17(21),18-octaen-13-yl]acetic acid]	689
Cc1cc2cc(c1F)[C@H](CC(=O)O)NC(=O)[C@@H](n1cc(CCN3CC(F)C3)c(C(F)(F)F)cc1=O)c1cc(ccc1F)Oc1cccc(C)c1-2 (relative stereo) [Example 7, [(14R*,17S)-12,19-difluoro-14-{5-[2-(3-fluoroazetidin-1-yl)ethyl]-2-oxo-4-(trifluoromethyl)pyridin-1-yl}-3,20-dimethyl-15-oxo-8-oxa-16-azatetracyclo[16.3.1.1^{9,13}.0^{2,7}]tricosa-1(21),2(7),3,5,9(23),10,12,18(22),19-nonaen-17-yl]acetic acid]	61.5
Cc1cc2cc(c1F)[C@H](CC(=O)O)NC(=O)[C@@H](n1cc(CCN3CC(F)C3)c(C(F)(F)F)cc1=O)c1cccc(c1)Oc1cccc(C)c1-2 (relative stereo) [Example 1, rel-2-((5S,8S)-1^4-fluoro-5-(5-(2-(3-fluoroazetidin-1-yl)ethyl)-2-oxo-4-(trifluoromethyl)pyridin-1(2H)-yl)-1^5,2^6-dimethyl-6-oxo-3-oxa-7-aza-1,4(1,3),2(1,2)-tribenzenacyclooctaphane-8-yl)acetic acid]	2080
